Drawing on ChEMBL document CHEMBL1137403, “Discovery of 2-[4-{{2-(2S,5R)-2-cyano-5-ethynyl-1-pyrrolidinyl]-2-oxoethyl]amino]- 4-methyl-1-piperidinyl]-4-pyridinecarboxylic acid (ABT-279): a very potent, selective, effective, and well-tolerated inhibitor of dipeptidyl peptidase-IV, useful for the treatment of diabetes” (J Med Chem, 2006), this text covers Ki for 1 compound.

What is called Ki is the dissociation constant of the complex between target and ligand, obtained from inhibition or displacement. Low values mean a stronger hold on the target, high ones a looser hold on the target.

In the assay the target is Dipeptidyl peptidase 9 (Homo sapiens, UniProt Q86TI2).

The structures appear in SMILES notation.

Sequence of Dipeptidyl peptidase 9 (Q86TI2 whole entry): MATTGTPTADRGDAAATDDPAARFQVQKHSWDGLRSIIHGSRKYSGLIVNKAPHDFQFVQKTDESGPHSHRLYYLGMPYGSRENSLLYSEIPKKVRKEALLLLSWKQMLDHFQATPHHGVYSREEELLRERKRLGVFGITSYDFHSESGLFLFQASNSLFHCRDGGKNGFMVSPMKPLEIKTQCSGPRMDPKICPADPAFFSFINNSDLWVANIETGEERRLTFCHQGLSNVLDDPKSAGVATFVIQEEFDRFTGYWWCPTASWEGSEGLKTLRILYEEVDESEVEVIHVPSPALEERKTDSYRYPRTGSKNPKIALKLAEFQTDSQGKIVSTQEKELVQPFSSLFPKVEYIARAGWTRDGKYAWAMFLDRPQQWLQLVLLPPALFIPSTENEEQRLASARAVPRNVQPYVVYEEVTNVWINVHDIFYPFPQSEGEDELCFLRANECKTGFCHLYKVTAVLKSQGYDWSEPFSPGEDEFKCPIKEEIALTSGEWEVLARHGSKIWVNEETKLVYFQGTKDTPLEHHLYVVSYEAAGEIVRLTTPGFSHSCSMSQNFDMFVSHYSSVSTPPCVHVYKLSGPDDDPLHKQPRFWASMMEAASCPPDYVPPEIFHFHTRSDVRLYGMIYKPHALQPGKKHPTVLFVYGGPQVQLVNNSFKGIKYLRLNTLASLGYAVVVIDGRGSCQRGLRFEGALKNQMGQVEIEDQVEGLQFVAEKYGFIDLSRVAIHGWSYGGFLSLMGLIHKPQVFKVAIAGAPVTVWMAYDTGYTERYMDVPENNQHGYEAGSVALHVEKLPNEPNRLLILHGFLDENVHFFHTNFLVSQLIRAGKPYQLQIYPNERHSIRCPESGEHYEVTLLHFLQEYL

Take `C#C[C@H]1CC[C@@H](C#N)N1C(=O)[C@@H](N)C1CCCC1`: the inhibition constant (Ki) was > 30 µM.
